Assay in all cases: FP saturation binding assay
The target of one assay is T1, PIK3R3-N SH2 domain (Homo sapiens, UniProt Q92569).
T1 construct: 6X His; thioredoxin; made in house; host or cells: E. coli BL21(DE3)pLysS
The following applies: high-confidence ErbB interactions. In short, it runs like this: (§1)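 Rhodamine-labeled peptides (10 nM final) were titrated with 12 SH2 domain concentrations (0.002–10 µM) in 20 mM HEPES, 100 mM KCl, 0.1% Tween-20, 5 mM DTT, pH 7.8. After 20 min at room temperature in the dark, FP (ex 530/em 555 nm) was read. KDs came from nonlinear least-squares fits.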

The target of assay [1] is T2, RASA1-NC tandem SH2 domains (Homo sapiens, UniProt P20936).
T2 construct: the tandem protein was included in our analysis with all internal amino acids linking the domains; 6X His; thioredoxin; made in house; host or cells: E. coli BL21(DE3)pLysS
T2 sequence (P20936 181-441 limits assumed): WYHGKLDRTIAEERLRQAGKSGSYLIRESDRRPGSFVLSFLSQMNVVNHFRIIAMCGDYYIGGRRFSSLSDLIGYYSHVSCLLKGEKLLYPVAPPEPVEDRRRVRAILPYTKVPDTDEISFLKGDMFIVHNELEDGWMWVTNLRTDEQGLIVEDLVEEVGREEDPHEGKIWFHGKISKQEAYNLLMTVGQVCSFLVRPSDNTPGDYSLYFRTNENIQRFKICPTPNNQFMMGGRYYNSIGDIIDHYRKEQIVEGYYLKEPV
As to conditions: high-confidence ErbB interactions. In short, it runs like this: as §1

The target in assay [2] is T3, PIK3R3-NC tandem SH2 domains (Homo sapiens, UniProt Q92569).
T3 construct: the tandem protein was included in our analysis with all internal amino acids linking the domains; 6X His; thioredoxin; made in house; host or cells: E. coli BL21(DE3)pLysS
As to conditions: high-confidence ErbB interactions. In a few lines: as §1

The target of a further assay is T4, PTK6 SH2 domain (Homo sapiens, UniProt Q13882).
T4 construct: from the PTK6 SH2 domain; 6X His; thioredoxin; made in house; host or cells: E. coli BL21(DE3)pLysS
T4 sequence (Q13882 78-170 limits assumed): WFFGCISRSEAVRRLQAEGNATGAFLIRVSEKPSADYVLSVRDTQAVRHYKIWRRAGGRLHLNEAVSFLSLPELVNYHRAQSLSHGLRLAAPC
As to conditions: high-confidence ErbB interactions. In short, it runs like this:
as §1

The next assay deals with T5, YES1 SH2 domain (Homo sapiens, UniProt P07947).
T5 construct: 6X His; thioredoxin; made in house; host or cells: BL21(DE3)pLysS E. coli
T5 sequence (P07947 158-255 limits assumed): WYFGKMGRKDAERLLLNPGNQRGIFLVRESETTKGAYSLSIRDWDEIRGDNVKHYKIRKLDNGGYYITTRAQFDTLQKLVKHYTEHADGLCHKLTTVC
As to conditions: high-confidence ErbB interactions. In a few lines: as §1

For another assay, the target named is T6, PTPN11-N SH2 domain (Homo sapiens, UniProt Q06124).
T6 sequence (Q06124 6-102 limits assumed): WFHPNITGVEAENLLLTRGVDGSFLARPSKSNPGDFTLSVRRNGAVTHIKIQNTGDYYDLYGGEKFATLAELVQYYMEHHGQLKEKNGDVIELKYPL

The target of the next assay is T7, LYN SH2 domain (Homo sapiens, UniProt P07948).
T7 construct: 93 SH2 and 2 PTB domain-containing constructs; 6X His; thioredoxin; made in house; host or cells: E. coli BL21(DE3)pLysS
T7 sequence (P07948 129-226 limits assumed): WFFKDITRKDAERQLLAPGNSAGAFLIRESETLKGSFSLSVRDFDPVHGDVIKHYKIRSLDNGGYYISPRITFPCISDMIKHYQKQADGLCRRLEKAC
The following applies: high-confidence ErbB interactions. In a few lines:
as §1

A further assay concerns the target T8, LCK SH2 domain (Homo sapiens, UniProt P06239).
T8 construct: 93 SH2 and 2 PTB domain-containing constructs; 6X His; thioredoxin; made in house; host or cells: E. coli BL21(DE3)pLysS
The following applies: high-confidence ErbB interactions. In short, it runs like this: as §1

For another assay, the target named is GRB7 SH2 domain (Homo sapiens, UniProt Q14451).
Sequence of GRB7 SH2 domain (Q14451 431-527 limits assumed): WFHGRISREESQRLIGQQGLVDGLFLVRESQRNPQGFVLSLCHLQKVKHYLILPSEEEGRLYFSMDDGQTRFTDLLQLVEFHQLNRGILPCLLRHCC
The mark [3] stands for this setting: Protein PIK3R3-N, FP saturation binding, mean over replicate hits.
[4] abbreviates: Protein PIK3R3-NC, FP saturation binding, mean over replicate hits.
Where [5] appears, read: Protein YES1, FP saturation binding, mean over replicate hits.
The mark [6] stands for this setting: protein YES1, FP, mean of replicate hits.
The mark [7] stands for this setting: protein LCK, FP, mean of replicate hits.

In general, Kd refers to the constant that tells how readily two partners part at equilibrium.

Residues, ends and D or L forms follow the SMILES beside them.

T8 sequence (P06239 127-224 limits assumed): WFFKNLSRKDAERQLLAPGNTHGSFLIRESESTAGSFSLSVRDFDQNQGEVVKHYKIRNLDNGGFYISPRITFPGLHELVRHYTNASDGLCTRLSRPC

As for `CC(C)C[C@H](NC(=O)[C@H](Cc1ccc(OP(=O)(O)O)cc1)NC(=O)[C@H](CCC(=O)O)NC(=O)[C@H](CCC(=O)O)NC(=O)[C@H](C)NC(=O)[C@@H](N)CC(=O)O)C(=O)N[C@H](C(=O)N1CCC[C@H]1C(=O)N[C@@H](CCC(N)=O)C(=O)N[C@@H](CCC(N)=O)C(=O)NCC(=O)N[C@@H](Cc1ccccc1)C(=O)N[C@@H](CC(=O)O)C(=O)O)C(C)C` [ErbB2 1023 13-mer] (HELM PEPTIDE1{D.A.E.E.[O=C([C@H](Cc1ccc(OP(=O)(O)O)cc1)N[*:1])[*:2]].L.V.P.Q.Q.G.F.D}$$$$V2.0), the Kd worked out at 5.27 µM at PIK3R3-N SH2 domain (setting [3]); 6.65 µM in [1] (Protein RASA1-NC, FP saturation binding, mean over replicate hits); 10.7 µM in [2] (setting [4]); 3.76 µM on PTK6 SH2 domain (Protein PTK6, FP saturation binding, mean over replicate hits).
Regarding `CC(C)[C@H](NC(=O)[C@H](CC(=O)O)NC(=O)[C@@H]1CCCN1C(=O)[C@H](CCC(N)=O)NC(=O)[C@H](CC(N)=O)NC(=O)[C@@H](NC(=O)[C@H](Cc1ccc(OP(=O)(O)O)cc1)NC(=O)[C@H](CCC(=O)O)NC(=O)[C@@H]1CCCN1C(=O)[C@H](CCC(N)=O)NC(=O)[C@@H]1CCCN1)C(C)C)C(=O)N[C@@H](CCCNC(=N)N)C(=O)N[C@@H](CC(=O)O)C(=O)O` [ErbB2 1139 13-mer] (HELM PEPTIDE1{P.Q.P.E.[O=C([C@H](Cc1ccc(OP(=O)(O)O)cc1)N[*:1])[*:2]].V.N.Q.P.D.V.R.D}$$$$V2.0), the Kd was 9.05 µM at PIK3R3-N SH2 domain (setting [3]), 13.4 µM at YES1 SH2 domain (setting [5]), 5.18 µM in assay [2] (setting [4]) and 8.86 µM at PTPN11-N SH2 domain.
Regarding `CC(C)C[C@H](NC(=O)[C@H](CC(N)=O)NC(=O)[C@@H](N)CC(=O)O)C(=O)N[C@@H](Cc1ccc(O)cc1)C(=O)N[C@@H](Cc1ccc(OP(=O)(O)O)cc1)C(=O)N[C@@H](Cc1c[nH]c2ccccc12)C(=O)N[C@@H](CC(=O)O)C(=O)N[C@@H](CCC(N)=O)C(=O)N[C@@H](CC(=O)O)C(=O)N1CCC[C@H]1C(=O)N1CCC[C@H]1C(=O)N[C@@H](CCC(=O)O)C(=O)N[C@@H](CC(=O)O)C(=O)O` [ErbB2 1222 13-mer] (HELM PEPTIDE1{D.N.L.Y.[O=C([C@H](Cc1ccc(OP(=O)(O)O)cc1)N[*:1])[*:2]].W.D.Q.D.P.P.E.D}$$$$V2.0), the Kd is 9.63 µM at PIK3R3-N SH2 domain (setting [3]); 1.52 µM on YES1 SH2 domain (setting [5]); 4.18 µM on LYN SH2 domain (Protein LYN, FP saturation binding, mean over replicate hits); 10.3 µM in assay [2] (setting [4]); 7.7 µM at LCK SH2 domain (Protein LCK, FP saturation binding, mean over replicate hits).
With `CSCC[C@H](NC(=O)[C@H](Cc1ccc(OP(=O)(O)O)cc1)NC(=O)[C@H](CCC(=O)O)NC(=O)[C@H](Cc1ccc(O)cc1)NC(=O)CNC(=O)[C@@H](N)CC(C)C)C(=O)N[C@@H](CC(=O)O)C(=O)N[C@H](C(=O)NCC(=O)N[C@@H](CO)C(=O)N[C@@H](CC(=O)O)C(=O)N[C@@H](CC(C)C)C(=O)N[C@@H](CC(=O)O)C(=O)O)C(C)C` [ErbB3 1224 13-mer] (HELM PEPTIDE1{L.G.Y.E.[O=C([C@H](Cc1ccc(OP(=O)(O)O)cc1)N[*:1])[*:2]].M.D.V.G.S.D.L.D}$$$$V2.0), the Kd is 2.52 µM at YES1 SH2 domain (setting [6]); 6.86 µM on LYN SH2 domain (protein LYN, FP, mean of replicate hits); 6.58 µM on PTK6 SH2 domain (protein PTK6, FP, mean of replicate hits); 3.02 µM at LCK SH2 domain (setting [7]); 4.8 µM on PTPN11-N SH2 domain.
With `CSCC[C@H](NC(=O)[C@H](CCC(=O)O)NC(=O)[C@H](CCC(=O)O)NC(=O)[C@H](Cc1ccc(OP(=O)(O)O)cc1)NC(=O)CNC(=O)[C@H](CCC(N)=O)NC(=O)[C@H](CCC(=O)O)NC(=O)[C@@H](N)CO)C(=O)N[C@@H](CCCNC(=N)N)C(=O)N[C@@H](C)C(=O)N[C@@H](Cc1ccccc1)C(=O)N[C@@H](CCC(N)=O)C(=O)N[C@@H](CC(=O)O)C(=O)O` [ErbB3 1289 13-mer] (HELM PEPTIDE1{S.E.Q.G.[O=C([C@H](Cc1ccc(OP(=O)(O)O)cc1)N[*:1])[*:2]].E.E.M.R.A.F.Q.D}$$$$V2.0), the Kd was 0.3 µM at PIK3R3-N SH2 domain (protein PIK3R3-N, FP, mean of replicate hits); 5.91 µM at YES1 SH2 domain (setting [6]); 2.23 µM at LCK SH2 domain (setting [7]).
On to `CSCC[C@H](NC(=O)[C@H](Cc1ccc(OP(=O)(O)O)cc1)NC(=O)CNC(=O)[C@H](CCC(=O)O)NC(=O)[C@H](CCC(=O)O)NC(=O)[C@H](CC(=O)O)NC(=O)[C@H](CC(C)C)NC(=O)[C@H](CCC(=O)O)NC(=O)CNC(=O)[C@H](CCCNC(=N)N)NC(=O)[C@@H]1CCCN1)C(=O)N[C@H](C(=O)N1CCC[C@H]1C(=O)N[C@@H](CCSC)C(=O)N[C@@H](CCCNC(=N)N)C(=O)N[C@@H](CC(=O)O)C(=O)N[C@@H](CCCCN)C(=O)N[C@@H](CC(=O)O)C(=O)O)[C@@H](C)O` [ErbB4 1150 18-mer] (HELM PEPTIDE1{P.R.G.E.L.D.E.E.G.[O=C([C@H](Cc1ccc(OP(=O)(O)O)cc1)N[*:1])[*:2]].M.T.P.M.R.D.K.D}$$$$V2.0), for which the Kd in assay [1] (protein RASA1-NC, FP, mean of replicate hits) is 0.41 µM; in assay [2] (protein PIK3R3-NC, FP, mean of replicate hits), 2.5 µM.
Turning to `CC(C)C[C@H](NC(=O)[C@H](Cc1ccc(OP(=O)(O)O)cc1)NC(=O)[C@H](CC(C)C)NC(=O)[C@@H]1CCCN1C(=O)[C@H](CCC(=O)O)NC(=O)[C@H](CC(N)=O)NC(=O)[C@@H](NC(=O)[C@H](Cc1ccc(O)cc1)NC(=O)[C@H](CCC(=O)O)NC(=O)[C@H](CC(=O)O)NC(=O)[C@@H](N)CCC(=O)O)C(C)C)C(=O)N[C@@H](CC(N)=O)C(=O)N[C@H](C(=O)N[C@@H](Cc1ccccc1)C(=O)N[C@@H](C)C(=O)N[C@@H](CC(N)=O)C(=O)N[C@H](C(=O)N[C@@H](CC(=O)O)C(=O)O)[C@@H](C)O)[C@@H](C)O` [ErbB4 1208 18-mer] (HELM PEPTIDE1{E.D.E.Y.V.N.E.P.L.[O=C([C@H](Cc1ccc(OP(=O)(O)O)cc1)N[*:1])[*:2]].L.N.T.F.A.N.T.D}$$$$V2.0), the Kd came out at 6.39 µM in [1] (protein RASA1-NC, mean of replicate hits); 5.15 µM on LYN SH2 domain (protein LYN, mean of replicate hits); 3.02 µM in assay [2] (protein PIK3R3-NC, mean of replicate hits); 15.5 µM at PTK6 SH2 domain (protein PTK6, mean of replicate hits); 9.99 µM at GRB7 SH2 domain (Mean KD, protein GRB7, high-confidence ErbB interactions, mean of replicate hits).
Take DNLYpYWDQDPPEd [ErbB2 pY1222]: the “interaction with GRB7 on the FP platform” value on GRB7 SH2 domain (peptides queried on both FP and PM platforms) is “only displayed interactions with GRB7 from the PM platform”.

Source of the values: article PMC3433420 (PLoS ONE, 2012).
